Source: ChEMBL document CHEMBL1130860, “Thrombin receptor (PAR-1) antagonists. Heterocycle-based peptidomimetics of the SFLLR agonist motif” (Bioorg Med Chem Lett, 1998)
Numbered stars: 1 amine (or outer) side, 2 acyl side, 3 side chain; on linkers, the order of the positions; unused ones are H or OH. Square brackets hold non-standard residues; d marks the D form. Peptide text beside a SMILES is read from it. * marks the point of attachment. ξ: configuration not given here. Phe(4-F)ψ(2,4-Thz) = O=C(c1csc([C@H](Cc2ccc(F)cc2)N[*:1])n1)[*:2]; Phe(4-guanidino) = N=C(N)Nc1ccc(C[C@H](N)C(=O)O)cc1; X1 = COc1ccc(C[C@H](N[*:1])c2nc(C(=O)[*:2])cs2)cc1; Phe(4-F) = N[C@@H](Cc1ccc(F)cc1)C(=O)O; hArg = N=C(N)NCCCC[C@H](N)C(=O)O; Cha = N[C@@H](CC1CCCCC1)C(=O)O; Nphe = O=C(O)CNCc1ccccc1; X2 = O=C(/C=C/c1ccccc1)*; ξV = CC(C)C(N)C(=O)O; Sar = CNCC(=O)O

How the values were obtained:
[1] = organism: Homo sapiens; assay: Inhibition of TRAP-6 (SFLLRN-NH2)-induced human gel filtered platelet aggregation (GFP).; format: functional
[2] = organism: Homo sapiens; assay: Inhibition of alpha-thrombin-induced human gel filtered platelet aggregation (GFP).; format: functional
[3] = target: T1, Proteinase-activated receptor 1 (Homo sapiens, UniProt P25116); assay: Inhibition of [3H]S-(p-F-Phe)-Har-L-Har-KY-NH2 binding to a thrombin receptor (PAR-1) membrane preparation.
T1 sequence (P25116 whole entry): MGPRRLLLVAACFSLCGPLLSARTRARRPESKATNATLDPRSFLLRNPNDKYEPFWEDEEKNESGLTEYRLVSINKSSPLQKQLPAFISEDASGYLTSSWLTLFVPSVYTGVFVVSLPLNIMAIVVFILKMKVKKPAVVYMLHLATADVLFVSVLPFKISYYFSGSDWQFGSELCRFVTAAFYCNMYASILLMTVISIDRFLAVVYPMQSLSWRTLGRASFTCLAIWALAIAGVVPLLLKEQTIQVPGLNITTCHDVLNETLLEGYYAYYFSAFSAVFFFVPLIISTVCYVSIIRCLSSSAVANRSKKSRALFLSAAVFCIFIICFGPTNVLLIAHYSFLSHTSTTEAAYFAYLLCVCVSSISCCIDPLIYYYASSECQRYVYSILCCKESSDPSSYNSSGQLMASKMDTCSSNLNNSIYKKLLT

Row | IC50 [1] | IC50 [2] | IC50 [3] | SMILES
1 | 14 µM | 41 µM | 5.7 µM | CNCC(=O)N[C@@H](Cc1ccc(F)cc1)c1nc(C(=O)N[C@@H](CC2CCCCC2)C(=O)N[C@@H](CCCN=C(N)N)C(=O)N[C@@H](Cc2ccccc2)C(N)=O)cs1
2 | 19 µM | 18 µM | 30 µM | CC(=O)N[C@@H](Cc1ccc(F)cc1)c1nc(C(=O)N[C@@H](CC2CCCCC2)C(=O)N[C@@H](CCCNC(=N)N)C(=O)NCc2ccccc2)c(C)o1
3 | 6.6 µM | 25 µM | 1.6 µM | CNCC(=O)N[C@@H](Cc1ccc(F)cc1)c1nc(C(=O)N[C@@H](CC2CCCCC2)C(=O)N[C@@H](CCCN=C(N)N)C(=O)NCc2ccccc2)co1
4 | 42 µM | 96 µM | 94 µM | CNCC(=O)N[C@@H](Cc1ccc(F)cc1)c1nc(C(=O)N[C@H](CC2CCCCC2)C(=O)N[C@@H](CCCNC(=N)N)C(=O)N[C@@H](Cc2ccccc2)C(N)=O)cs1
5 | 36 µM | 45 µM | 60 µM | CNCC(=O)N[C@@H](Cc1ccccc1)c1nc(C(=O)N[C@@H](CC2CCCCC2)C(=O)N[C@@H](CCCNC(=N)N)C(=O)NCc2ccccc2)c(C)o1
6 | 16 µM | 28 µM | 8 µM | NC(=O)[C@H](Cc1ccccc1)NC(=O)[C@H](CCCN=C(N)N)NC(=O)[C@H](CC1CCCCC1)NC(=O)c1csc([C@@H](N)Cc2ccc(F)cc2)n1
7 | 13 µM | 19 µM | 6.2 µM | NCC(=O)N[C@@H](Cc1ccc(F)cc1)c1nc(C(=O)N[C@@H](CC2CCCCC2)C(=O)N[C@@H](CCCN=C(N)N)C(N)=O)co1
8 | 36 µM | > 100 µM | 6.7 µM | NCCC(=O)N[C@@H](Cc1ccc(F)cc1)c1nc(C(=O)N[C@@H](CC2CCCCC2)C(=O)N[C@@H](CCCN=C(N)N)C(=O)NCc2ccccc2)co1
9 | 0.3 µM |  | 73 µM | CC(C)C[C@H](NC(=O)[C@H](CC(C)C)NC(=O)[C@H](Cc1ccccc1)NC(=O)[C@@H](N)CO)C(=O)N[C@@H](CCCN=C(N)N)C(=O)N[C@@H](CC(N)=O)C(N)=O
10 | 25 µM | 24 µM | 53 µM | Cc1oc([C@H](Cc2ccc(F)cc2)NC(=O)C(N)CN)nc1C(=O)N[C@@H](CC1CCCCC1)C(=O)N[C@@H](CCCN=C(N)N)C(=O)NCc1ccccc1 (stereo partly drawn)
11 | 18 µM | 23 µM | 5 µM | CNCC(=O)N[C@@H](Cc1ccc(F)cc1)c1nc(C(=O)N[C@@H](CC2CCCCC2)C(=O)N[C@@H](CCCNC(=N)N)C(=O)NCc2ccccc2)c(C)o1
12 | > 100 µM | > 100 µM | > 100 µM | CNCC(=O)N[C@@H](Cc1ccc(F)cc1)c1nc(C(=O)N2CCCC(C(=O)N[C@@H](CCCNC(=N)N)C(=O)N[C@@H](Cc3ccccc3)C(N)=O)C2)cs1 (stereo partly drawn)
13 | > 100 µM | > 100 µM | > 100 µM | CNCC(=O)N[C@@H](Cc1ccc(F)cc1)c1nc(C(=O)N[C@@H](CCCCN)C(=O)N[C@@H](CCCNC(=N)N)C(=O)NCCc2ccccc2)cs1
14 | 16 µM | 40 µM | 24 µM | CNCC(=O)N[C@@H](Cc1ccc(F)cc1)c1nc(C(=O)N[C@@H](CC2CCCCC2)C(=O)N[C@@H](CCCNC(=N)N)C(=O)NCC(C)c2ccccc2)cs1 (stereo partly drawn)
15 | 13 µM | 46 µM | 24 µM | CNCC(=O)N[C@@H](Cc1ccc(F)cc1)c1nc(C(=O)N[C@@H](Cc2ccccc2)C(=O)N[C@@H](CCCN=C(N)N)C(=O)NCc2ccccc2)cs1
16 | 11 µM | 27 µM | 10 µM | CNCC(=O)N[C@@H](Cc1ccc(F)cc1)c1nc(C(=O)N[C@@H](CC2CCCCC2)C(=O)N[C@@H](CCCNC(=N)N)C(=O)NCc2ccccc2)cs1

Row | IC50 [1] | IC50 [2] | IC50 [3] | SMILES
17 | 10 µM | 27 µM | 5.6 µM | CNCC(=O)N[C@@H](Cc1ccc(F)cc1)c1nc(C(=O)N[C@@H](CC2CCCCC2)C(=O)N[C@@H](CCCN=C(N)N)C(=O)NCCc2ccccc2)cs1
18 | 10 µM | 17 µM | 5.4 µM | NCC(=O)N[C@@H](Cc1ccc(F)cc1)c1nc(C(=O)N[C@@H](CC2CCCCC2)C(=O)N[C@@H](CCCN=C(N)N)C(=O)NCc2ccccc2)co1
19 | 4 µM | 32 µM | 3.9 µM | CC[C@H](C)[C@H](N)C(=O)N[C@@H](Cc1ccc(F)cc1)c1nc(C(=O)N[C@@H](CC2CCCCC2)C(=O)N[C@@H](CCCN=C(N)N)C(=O)N[C@@H](Cc2ccccc2)C(N)=O)cs1 (H-I[Phe(4-F)ψ(2,4-Thz)][Cha]RF-NH2)
20 | 80 µM | > 100 µM | > 100 µM | CC[C@H](C)[C@H](N)C(=O)N[C@@H](Cc1ccc(F)cc1)c1nc(C(=O)N(CC(=O)N[C@@H](CCCN=C(N)N)C(=O)N[C@@H](Cc2ccccc2)C(N)=O)Cc2ccccc2)cs1 (H-I[Phe(4-F)ψ(2,4-Thz)][Nphe]RF-NH2)
21 | > 100 µM | > 100 µM |  | CNCC(=O)N[C@@H](Cc1ccc(F)cc1)c1nc(C(=O)N[C@@H](CCCN=C(N)N)C(=O)N[C@@H](CCCN=C(N)N)C(=O)N[C@@H](Cc2ccccc2)C(N)=O)cs1 (H-[Sar][Phe(4-F)ψ(2,4-Thz)]RRF-NH2)
22 |  |  | > 100 µM | CNCC(=O)N[C@@H](Cc1ccc(F)cc1)c1nc(C(=O)N[C@@H](CCCNC(=N)N)C(=O)N[C@@H](CCCNC(=N)N)C(=O)N[C@@H](Cc2ccccc2)C(N)=O)cs1 (H-[Sar][Phe(4-F)ψ(2,4-Thz)]RRF-NH2)
23 | 5.5 µM | 45 µM | 4.1 µM | CNCC(=O)N[C@@H](Cc1ccc(F)cc1)c1nc(C(=O)N[C@@H](CC2CCCCC2)C(=O)N[C@@H](CCCN=C(N)N)C(=O)N[C@@H](Cc2ccc(O)cc2)C(N)=O)cs1 (H-[Sar][Phe(4-F)ψ(2,4-Thz)][Cha]RY-NH2)
24 | 6.8 µM | 46 µM |  | CNCC(=O)N[C@@H](Cc1ccc(F)cc1)c1nc(C(=O)N[C@@H](CC2CCCCC2)C(=O)N[C@@H](CCCN=C(N)N)C(=O)N[C@@H](CC2CCCCC2)C(N)=O)cs1 (H-[Sar][Phe(4-F)ψ(2,4-Thz)][Cha]R[Cha]-NH2)
25 |  |  | 2.7 µM | CNCC(=O)N[C@@H](Cc1ccc(F)cc1)c1nc(C(=O)N[C@@H](CC2CCCCC2)C(=O)N[C@@H](CCCNC(=N)N)C(=O)N[C@@H](CC2CCCCC2)C(N)=O)cs1 (H-[Sar][Phe(4-F)ψ(2,4-Thz)][Cha]R[Cha]-NH2)
26 | 7.7 µM | 59 µM |  | CNCC(=O)N[C@@H](Cc1ccc(F)cc1)c1nc(C(=O)N[C@@H](CC2CCCCC2)C(=O)N[C@@H](CCCCN=C(N)N)C(=O)N[C@@H](Cc2ccccc2)C(N)=O)cs1 (H-[Sar][Phe(4-F)ψ(2,4-Thz)][Cha][hArg]F-NH2)
27 | 4.6 µM | 22 µM |  | CC(C)C(N)C(=O)N[C@@H](Cc1ccc(F)cc1)c1nc(C(=O)N[C@@H](CC2CCCCC2)C(=O)N[C@@H](CCCN=C(N)N)C(=O)N[C@@H](Cc2ccccc2)C(N)=O)cs1 (stereo partly drawn) (H-[ξV][Phe(4-F)ψ(2,4-Thz)][Cha]RF-NH2)
28 |  |  | 2.7 µM | CC(C)C(N)C(=O)N[C@@H](Cc1ccc(F)cc1)c1nc(C(=O)N[C@@H](CC2CCCCC2)C(=O)N[C@@H](CCCNC(=N)N)C(=O)N[C@@H](Cc2ccccc2)C(N)=O)cs1 (stereo partly drawn) (H-[ξV][Phe(4-F)ψ(2,4-Thz)][Cha]RF-NH2)
29 | 9.5 µM | 49 µM |  | COc1ccc(C[C@H](NC(=O)C(N)C(C)C)c2nc(C(=O)N[C@@H](CC3CCCCC3)C(=O)N[C@@H](CCCN=C(N)N)C(=O)N[C@@H](Cc3ccccc3)C(N)=O)cs2)cc1 (stereo partly drawn) (H-[ξV][X1][Cha]RF-NH2)
30 |  |  | 8.2 µM | COc1ccc(C[C@H](NC(=O)C(N)C(C)C)c2nc(C(=O)N[C@@H](CC3CCCCC3)C(=O)N[C@@H](CCCNC(=N)N)C(=O)N[C@@H](Cc3ccccc3)C(N)=O)cs2)cc1 (stereo partly drawn) (H-[ξV][X1][Cha]RF-NH2)
31 | 0.021 µM |  | 0.0075 µM | CC(C)C[C@H](NC(=O)[C@H](Cc1ccc(NC(=N)N)cc1)NC(=O)[C@H](Cc1ccc(F)cc1)NC(=O)/C=C/c1ccccc1)C(=O)N[C@@H](CCCN=C(N)N)C(=O)N[C@@H](CCCN=C(N)N)C(N)=O (X2-[Phe(4-F)][Phe(4-guanidino)]LRR-NH2)
